In ChEMBL document CHEMBL1154910, “Nitric oxide donors or nitrite counteract copper-[dithiocarbamate](2)-mediated tumor cell death and inducible nitric oxide synthase down-regulation: possible role of a nitrosyl-copper [dithiocarbamate](2) complex” (J Med Chem, 2010):
Calls of active or inactive are those of the source. No cut-off for these calls is given here.

Legend:
Assay type in all cases: functional, cell-based
C8161 [1] = assay: Inhibition of [DEDTC]2-Cu-induced cytotoxicity against human C8161 cells at 50 uM
SK-BR-3 [2] = assay: Inhibition of [DEDTC]2-Cu-induced cytotoxicity against human SK-BR-3 cells at 50 uM
SK-BR-3 [3] = assay: Inhibition of [DEDTC]2-Cu-induced apoptosis in human SK-BR-3 cells assessed as PARP-cleavage at 50 uM
C8161 [4] = assay: Inhibition of [DEDTC]2-Cu-induced iNOS-down regulation human C8161 cells

| Compound | Activity (C8161 [1]) | Activity (SK-BR-3 [2]) | Activity (SK-BR-3 [3]) | Activity (C8161 [4]) |
| --- | --- | --- | --- | --- |
| NCCN(CCN)N(O)N=O | Active | – | – | – |
| CC(=O)N[C@@H](C(=O)O)C(C)(C)SN=O | Active | Active | Active | Active |
